# Results published in US5668133A, “Ophthalmic compositions comprising emedastine and methods for their use” (priority 1995, dated 1997).
# Tests used:
# [1] = test system: histamine-induced vascular permeability in guinea pig conjunctiva; experiment: histamine-induced vascular permeability in guinea pig conjunctiva, topical ocular pretreatment; assay type: in vivo, guinea pig (Male Dunkin Hartley); conditions: for Wheal Area × Intensity: 1 min pretreatment
# Experimental: The topical ocular antihistaminic effect of emedastine difumarate was assessed in a model of histamine induced vascular permeability in guinea pig conjunctiva. The potency of emedastine difumarate in this model was then compared with those of reference antihistamines.
# Male Dunkin Hartley Viral Antibody Free outbred guinea pigs (Charles River Labs, Portage, Mich.), weighing approximately 250-350 grams (6/group) were injected intravenously (i.v.) via the marginal ear vein with 1.0 mL of Evans Blue dye (1.0 mg/mL). Forty-five (45) minutes post dye injection, 20 μL of test compound or saline vehicle was applied topically to one eye of each experimental animal. […] Responses were quantitated as described by Yanni et al. in Int. Arch. Allergy Immunol., 101:102-106 (1993). Response scores from the treated groups were then compared with scores obtained in the saline-treated group using Dunnett's t test (Dunnett C. W., "A multiple comparison procedure for comparing treatments with a control." J. Am. Stat. Assoc. 50:1096-1121(1955)). Regression analysis was used to determine relative potency (Bliss, C. and E. Gjorgy. In Vitamin Methods, Vol. 2, pp. 445-610, Academic Press, Inc., New York, 1951.).
# [2] = test system: passive anaphylaxis in guinea pig conjunctiva; experiment: passive conjunctival anaphylaxis, topical ocular antigen challenge, clinical scoring; assay type: in vivo
# Experimental: Emedastine difumarate was evaluated for its ability to inhibit a passive conjunctival immediate hypersensitivity response following topical ocular administration.
# Guinea pigs (5-8/group) were passively sensitized with anti-ovalbumin serum injected subconjunctivally in one eye. Twenty-four hours after passive sensitization, ovalbumin (OA) was administered either i.v. or topically to the eye.
# For assessment of the allergic response following topical ocular antigen challenge, 20 μL of ovalbumin (1.0 wt %) was administered to the sensitized eye 5 minutes after topical ocular application of emedastine difumarate or saline (20 μL). Thirty minutes later, the reaction was quantitated, using the following scoring scheme (maximum score per animal=10):
# Congestion (refers to palpebral and bulbar conjunctiva):
# 3--Dark red conjunctiva; petechiae present
# 1--Any swelling on lower lid only
# 2--Swelling upper and lower lid, lids partially closed
# 3--Lids everted, very swollen, lids at least half closed
# 4--Swelling of both lids and side of face
# 1--Glazed, glassy appearance
# 2--Moist lids and surrounding hair
# 3--Moist lids and surrounding hair, thicker mucous-like
# [3] = topically 1 minute before histamine challenge
# [4] = topical ocular antigen challenge, 5 min before challenge
compound,measurement,setting,value
"CCOCCn1c(N2CCCN(C)CC2)nc2ccccc21 [Emedastine Difumarate, 1-(2-ethoxyethyl)-2-(4-methyl-1-homopiperazinyl)-benzimidazole]",Wheal Area × Intensity,"[1]; 0.0001 wt %, antazoline experiment (NaCl 285 ± 19)",159 ± 31
same,Wheal Area × Intensity,"[1]; 0.0001 wt %, ketotifen/pheniramine experiment (NaCl 276 ± 10)",159 ± 26
same,Wheal Area × Intensity,"[1]; 0.0001 wt %, pyrilamine experiment (NaCl 308 ± 20)",166 ± 14
same,Wheal Area × Intensity,"[1]; 0.001 wt %, antazoline experiment (NaCl 285 ± 19)",109 ± 14
same,Wheal Area × Intensity,"[1]; 0.001 wt %, ketotifen/pheniramine experiment (NaCl 276 ± 10)",141 ± 38
same,Wheal Area × Intensity,"[1]; 0.001 wt %, pyrilamine experiment (NaCl 308 ± 20)",104 ± 20
same,Wheal Area × Intensity,"[1]; 0.01 wt %, antazoline experiment (NaCl 285 ± 19)",55 ± 12
same,Wheal Area × Intensity,"[1]; 0.01 wt %, ketotifen/pheniramine experiment (NaCl 276 ± 10)",45 ± 18
same,Wheal Area × Intensity,"[1]; 0.01 wt %, levocabastine experiment (NaCl 336 ± 78)",26 ± 27
same,Wheal Area × Intensity,"[1]; 0.01 wt %, pyrilamine experiment (NaCl 308 ± 20)",57 ± 16
same,ED50 (text),[1]; 1 minute prior to histamine challenge,0.0002%
same,inhibition of the vascular permeability response,"[1]; 1 minute, 30 minutes, 2, 4 or 8 hours prior to challenge",inhibited in concentration-dependent fashion
same,Wheal Area × Intensity (X ± S.D.),"[1]; 30 min pretreatment, 0.000001 wt %, clemastine experiment (NaCl 350 ± 31)",265 ± 35
same,Wheal Area × Intensity (X ± S.D.),"[1]; 30 min pretreatment, 0.000006 wt %, ketotifen experiment (NaCl 214 ± 41)",154 ± 62
same,Wheal Area × Intensity (X ± S.D.),"[1]; 30 min pretreatment, 0.000006 wt %, pyrilamine experiment (NaCl 194 ± 41)",136 ± 42
same,Wheal Area × Intensity (X ± S.D.),"[1]; 30 min pretreatment, 0.00001 wt %, antazoline experiment (NaCl 287 ± 20)",197 ± 57
same,Wheal Area × Intensity (X ± S.D.),"[1]; 30 min pretreatment, 0.00001 wt %, brompheniramine experiment (NaCl 219 ± 20)",191 ± 48
same,Wheal Area × Intensity (X ± S.D.),"[1]; 30 min pretreatment, 0.00001 wt %, chlorpheniramine experiment (NaCl 217 ± 35)",161 ± 68
same,Wheal Area × Intensity (X ± S.D.),"[1]; 30 min pretreatment, 0.00001 wt %, clemastine experiment (NaCl 350 ± 31)",165 ± 30
same,Wheal Area × Intensity (X ± S.D.),"[1]; 30 min pretreatment, 0.00001 wt %, diphenhydramine experiment (NaCl 214 ± 34)",163 ± 32
same,Wheal Area × Intensity (X ± S.D.),"[1]; 30 min pretreatment, 0.00001 wt %, levocabastine/pheniramine experiment (NaCl 252 ± 30)",191 ± 27
same,Wheal Area × Intensity (X ± S.D.),"[1]; 30 min pretreatment, 0.00006 wt %, ketotifen experiment (NaCl 214 ± 41)",91 ± 26
same,Wheal Area × Intensity (X ± S.D.),"[1]; 30 min pretreatment, 0.00006 wt %, pyrilamine experiment (NaCl 194 ± 41)",75 ± 22
same,Wheal Area × Intensity (X ± S.D.),"[1]; 30 min pretreatment, 0.0001 wt %, antazoline experiment (NaCl 287 ± 20)",65 ± 32
same,Wheal Area × Intensity (X ± S.D.),"[1]; 30 min pretreatment, 0.0001 wt %, brompheniramine experiment (NaCl 219 ± 20)",104 ± 47
same,Wheal Area × Intensity (X ± S.D.),"[1]; 30 min pretreatment, 0.0001 wt %, chlorpheniramine experiment (NaCl 217 ± 35)",112 ± 58
same,Wheal Area × Intensity (X ± S.D.),"[1]; 30 min pretreatment, 0.0001 wt %, clemastine experiment (NaCl 350 ± 31)",70 ± 27
same,Wheal Area × Intensity (X ± S.D.),"[1]; 30 min pretreatment, 0.0001 wt %, diphenhydramine experiment (NaCl 214 ± 34)",98 ± 22
same,Wheal Area × Intensity (X ± S.D.),"[1]; 30 min pretreatment, 0.0001 wt %, levocabastine/pheniramine experiment (NaCl 252 ± 30)",137 ± 24
same,Wheal Area × Intensity (X ± S.D.),"[1]; 30 min pretreatment, 0.0006 wt %, ketotifen experiment (NaCl 214 ± 41)",16 ± 14
same,Wheal Area × Intensity (X ± S.D.),"[1]; 30 min pretreatment, 0.0006 wt %, pyrilamine experiment (NaCl 194 ± 41)",6 ± 7
same,Wheal Area × Intensity (X ± S.D.),"[1]; 30 min pretreatment, 0.001 wt %, antazoline experiment (NaCl 287 ± 20)",4 ± 4
same,Wheal Area × Intensity (X ± S.D.),"[1]; 30 min pretreatment, 0.001 wt %, brompheniramine experiment (NaCl 219 ± 20)",8 ± 9
same,Wheal Area × Intensity (X ± S.D.),"[1]; 30 min pretreatment, 0.001 wt %, chlorpheniramine experiment (NaCl 217 ± 35)",18 ± 23
same,Wheal Area × Intensity (X ± S.D.),"[1]; 30 min pretreatment, 0.001 wt %, clemastine experiment (NaCl 350 ± 31)",6 ± 7
same,Wheal Area × Intensity (X ± S.D.),"[1]; 30 min pretreatment, 0.001 wt %, diphenhydramine experiment (NaCl 214 ± 34)",12 ± 19
same,Wheal Area × Intensity (X ± S.D.),"[1]; 30 min pretreatment, 0.001 wt %, levocabastine/pheniramine experiment (NaCl 252 ± 30)",7 ± 9
same,Potency,"[1]; 30 min pretreatment, relative to emedastine difumarate = 1.0, (95% Confidence limits)",1.0
same,potency compared to ketotifen,[1]; 30 minute treatment interval,equipotent
same,times more potent than brompheniramine,[1]; 30 minute treatment interval,7 times
same,times more potent than chlorpheniramine,[1]; 30 minute treatment interval,7 times
same,times more potent than clemastine,[1]; 30 minute treatment interval,10 times
same,times more potent than diphenhydramine,[1]; 30 minute treatment interval,3333 times
same,times more potent than levocabastine,[1]; 30 minute treatment interval,100 times
same,times more potent than pyrilamine,[1]; 30 minute treatment interval,10 times
same,times more potent than pheniramine,"[1]; 30 minute treatment interval, approximate, lack of parallelism",approximately 357 times
same,ED50 (text),[1]; 30 minutes prior to histamine challenge,0.000035%
same,ED50 (text),[1]; 2 hours prior to histamine challenge,0.0029%
same,ED50 (text),[1]; 4 hours prior to histamine challenge,0.019%
same,ED50 (text),[1]; 8 hours prior to histamine challenge,0.19%
same,ED50,[1]; pretreatment 1 min,0.0002 wt %
same,Percent Change,"[1]; pretreatment 1 min, 0.0001 wt %",-44%
same,Percent Change,"[1]; pretreatment 1 min, 0.001 wt %",-62%
same,Percent Change,"[1]; pretreatment 1 min, 0.01 wt %",-81%
same,ED50,[1]; pretreatment 30 min,0.000035 wt %
same,Percent Change,"[1]; pretreatment 30 min, 0.000006 wt %",-28%
same,Percent Change,"[1]; pretreatment 30 min, 0.00006 wt %",-58%
same,Percent Change,"[1]; pretreatment 30 min, 0.0006 wt %",-93%
same,ED50,[1]; pretreatment 2 hr,0.0029 wt %
same,Percent Change,"[1]; pretreatment 2 hr, 0.001 wt %",-35%
same,Percent Change,"[1]; pretreatment 2 hr, 0.005 wt %",-53%
same,Percent Change,"[1]; pretreatment 2 hr, 0.01 wt %",-72%
same,ED50,[1]; pretreatment 4 hr,0.019 wt %
same,Percent Change,"[1]; pretreatment 4 hr, 0.001 wt % (first line)",-9%
same,Percent Change,"[1]; pretreatment 4 hr, 0.1 wt %",-84%
same,Percent Change,"[1]; pretreatment 4 hr, 1.0 wt %",-95%
same,ED50,[1]; pretreatment 8 hr,0.19 wt %
same,Percent Change,"[1]; pretreatment 8 hr, 0.01 wt %",-5%
same,Percent Change,"[1]; pretreatment 8 hr, 0.05 wt %",-33%
same,Percent Change,"[1]; pretreatment 8 hr, 0.1 wt %",-43%
same,Percent Change,"[1]; pretreatment 8 hr, 0.5 wt %",-66%
same,Percent Change,"[1]; pretreatment 8 hr, 1.0 wt %",-71%
same,onset and duration of action,[1]; topical ocular administration,rapid onset and an acceptable duration of action
same,times more potent than antazoline,"[1]; topical, 0.5 h",~5813 times
same,potency compared to pyrilamine,[1]; [3],approximately equipotent
same,times more potent than antazoline,[1]; [3],17 times
same,times more potent than ketotifen,[1]; [3],3 times
same,times more potent than pheniramine,[1]; [3],8 times
same,reduction in severity of the hypersensitivity response,[2]; 5 minutes before topical ocular antigen challenge,concentration-dependent reductions in the severity of the hypersensitivity response
same,attenuation of the hypersensitivity response,[2]; concentrations ranging from 0.0001% to 0.1%,Significant attenuation
same,% Change,"[2]; topical ocular antigen challenge, 0.0001 wt %, 5 min before challenge",-29%
same,% Change,"[2]; topical ocular antigen challenge, 0.001 wt %, 5 min before challenge",-45%
same,% Change,"[2]; topical ocular antigen challenge, 0.01 wt %, 5 min before challenge",-51%
same,% Change,"[2]; topical ocular antigen challenge, 0.1 wt %, 5 min before challenge",-67%
same,ED50,[2]; [4],0.0046 wt %
same,ED50 (text),[2]; [4],0.0046%
